Values quoted from earlier work as cited in patent publication US20200138985A1, “KIT FOR LABELING A PROSTATE-SPECIFIC MEMBRANE ANTIGEN LIGAND WITH A RADIOACTIVE ISOTOPE” (Isotopia Molecular Imaging Ltd., priority 2015, published 2020).

Target: T1, PSMA (Homo sapiens, UniProt Q04609)
T1 construct: In cell research with PSMA-positive androgen-insensitive LNCaP-C4-2 cells; endogenous in cells; host or cells: LNCaP-C4-2 cells
Settings: PSMA-positive androgen-insensitive LNCaP-C4-2 cells

T1 sequence (Q04609 whole entry): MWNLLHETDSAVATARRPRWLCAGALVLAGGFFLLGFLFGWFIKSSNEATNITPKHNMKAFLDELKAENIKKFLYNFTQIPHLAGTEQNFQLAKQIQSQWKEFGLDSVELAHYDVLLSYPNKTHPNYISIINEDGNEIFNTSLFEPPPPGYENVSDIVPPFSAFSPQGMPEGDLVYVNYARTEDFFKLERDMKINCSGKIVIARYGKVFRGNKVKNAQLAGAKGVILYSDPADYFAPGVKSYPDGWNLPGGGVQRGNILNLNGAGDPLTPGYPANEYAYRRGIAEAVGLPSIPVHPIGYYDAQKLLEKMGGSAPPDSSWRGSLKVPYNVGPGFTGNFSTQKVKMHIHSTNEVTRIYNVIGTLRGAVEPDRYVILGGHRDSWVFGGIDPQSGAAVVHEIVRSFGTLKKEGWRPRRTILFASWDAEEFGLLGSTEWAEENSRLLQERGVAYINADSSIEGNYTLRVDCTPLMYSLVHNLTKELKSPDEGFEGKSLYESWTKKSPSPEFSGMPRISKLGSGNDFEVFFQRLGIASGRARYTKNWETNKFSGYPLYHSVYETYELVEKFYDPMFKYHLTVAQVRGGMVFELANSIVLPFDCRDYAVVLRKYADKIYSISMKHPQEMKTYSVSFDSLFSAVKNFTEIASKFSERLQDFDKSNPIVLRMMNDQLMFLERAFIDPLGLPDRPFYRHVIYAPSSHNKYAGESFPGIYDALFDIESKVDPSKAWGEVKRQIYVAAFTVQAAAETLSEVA

Kd [nM]	Substance
21.6 ± 0.4	(5S,8S,22S,26S)-1-amino-5,8-dibenzyl-4,7,10,19,24-pentaoxo-3,6,9,18,23,25-hexaazaoctacosane-22,26,28-tricarboxylic acid (DUPA-Pep), conjugated with 1,4,7,10-tetraazacyclododecane-N,N,N′,N″-tetraacetic acid (DOTA)
≤ 14.7	cyclohexyl-diethylene triamine pentaacetic acid-(5S,8S,22S,26S)-1-amino-5,8-dibenzyl-4,7,10,19,24-pentaoxo-3,6,9,18,23,25-hexaazaoctacosane-22,26,28- tricarboxylic acid [CHX-A″-DTPA-DUPA-Pep]
